In US20040028714A1, “Composition having insect repellent characteristics” (priority 2000, published 2004):
Several values for one entry are separate records, joined by “and”; a condition that tells them apart may be missing. Equal values may be shown once.

System: German cockroaches (Blatella Germanica)
Experiment: Cockroach repellency screening on partially treated formica surface (Example 2)
Type: in vivo
Settings: 20 mg/m^2 on formica; for Percentage Dead / Percentage Present, Treated Section / Percentage Present, Untreated Section / Percentage Present, Treated Section, Average / Percentage Present, Untreated Section, Average: cockroaches; for Percentage Present, Treated Section, Average / Percentage Present, Untreated Section, Average: average of days 1, 2 and 3; for Number of Cockroaches present, Treated Section / Number of Cockroaches present, Untreated Section / Number of Cockroaches, Dead: single replicates (n = 20); for Number of Cockroaches present, Treated Section, Total / Number of Cockroaches present, Untreated Section, Total / Number of Cockroaches, Dead, Total: total of 4 replicates (80)
Description: The effectiveness of compounds of formula I as an insect repellent was determined using German cockroaches exposed to a formica surface partially treated/partially untreated with a test compound of formula I. The study was conducted in an air conditioned laboratory at a temperature of 22°±2° C. under a normal day/night cycle, using German cockroaches (Blatella Germanica) of mixed sex and age. The study was conducted over a 3 day period and the repellent effectiveness assessed 1, 2 and 3 days after cockroach introduction. A rectangle of formica 40 cm×30 cm was treated at 20 mg/m^2 with a test compound of formula I. This was achieved by soaking a paper wipe (Rag on a Roll ca 20 cm×20 cm) in a solution of the test compound in ethanol, squeezing out the excess liquid and wiping over the surface to give the required coverage. This was checked by weighing the cloth after application. The surface was allowed to dry. A similar rectangle was wiped with ethanol alone (untreated surface). The treated formica rectangle was placed on the bench and a plastic container was placed on the rectangle. This had been treated with fluon to prevent cockroach escape. Two sheets of formica (10 cm×10 cm) were placed on the formica, one on the treated surface and one on the untreated surface. This acted as a cockroach harbourage. The formica sheet to be used in the treated section was treated at the same rate as the treated formica. The formica was placed on two 1 cm high bottle tops to allow cockroaches access under the formica. 20 German cockroaches were added (5 adults and 15 nymphs) to the centre of the formica. No food and water was supplied for these cockroaches. At 1, 2 and 3 days after cockroach introduction the number of cockroaches under each harbourage was counted. After each count the harbourage position was change to avoid the possibility of […] were replaced and new cockroaches were added to replace any dead cockroaches. The above was repeated 3 times to provide a total of 4 replicates.

[1] = 1 day after cockroach introduction
[2] = 2 days after cockroach introduction
[3] = 3 days after cockroach introduction

SMILES | Percentage Dead (1 day after treatment) | Percentage Present, Treated Section (1 day after treatment) | Percentage Present, Untreated Section (1 day after treatment) | Percentage Dead (2 days after treatment) | Percentage Present, Treated Section (2 days after treatment) | Percentage Present, Untreated Section (2 days after treatment) | Percentage Dead (3 days after treatment) | Percentage Present, Treated Section (3 days after treatment) | Percentage Present, Untreated Section (3 days after treatment) | Percentage Present, Treated Section, Average | Percentage Present, Untreated Section, Average | further results
CCN(CC)C(=O)C1CC(C)CCC1C(C)C (stereo not shown) [Compound 6, N,N-diethyl-p-menthane-3-carboxamide] | 0% | 11.3% | 88.7% | 0% | 13.8% | 86.2% | 2.5% | 6.3% | 91.2% | 10.5% | 88.7% | 
CC1CCC(C(C)C)C(C(=O)N(C)C)C1 (stereo not shown) [Compound 5, N,N-dimethyl-p-menthane-3-carboxamide] | 0% | 15.0% | 85.0% | 1.2% | 10.0% | 88.8% | 1.2% | 15.0% | 83.8% | 13.3% | 85.9% | 
CC1CCC(C(C)C)C(C(=O)Nc2ccccc2)C1 (stereo not shown) [Compound 4, N-phenyl-p-menthane-3-carboxamide] | 0% | 46.3% | 53.7% | 0% | 35.0% | 65.0% | 1.2% | 12.5% | 86.3% | 31.3% | 68.3% | 
CNC(=O)C1CC(C)CCC1C(C)C (stereo not shown) [Compound 1, N-methyl-p-menthane-3-carboxamide] | 0% | 18.7% | 81.3% | 1.2% | 16.3% | 82.5% | 1.2% | 13.8% | 85.0% | 16.3% | 82.9% | Number of Cockroaches present, Treated Section [1]: 5 and 3 and 7 and 0; Number of Cockroaches present, Untreated Section [1]: 15 and 17 and 13 and 20; Number of Cockroaches, Dead [1]: 0; Number of Cockroaches present, Treated Section, Total [1]: 15; Number of Cockroaches present, Untreated Section, Total [1]: 65; Number of Cockroaches, Dead, Total [1]: 0; Number of Cockroaches present, Treated Section [2]: 5 (2×) and 3 and 0; Number of Cockroaches present, Untreated Section [2]: 15 and 17 and 14 and 20; Number of Cockroaches, Dead [2]: 0 (3×) and 1; Number of Cockroaches present, Treated Section, Total [2]: 13; Number of Cockroaches present, Untreated Section, Total [2]: 66; Number of Cockroaches, Dead, Total [2]: 1; Number of Cockroaches present, Treated Section [3]: 4 (2×) and 3 and 0; Number of Cockroaches present, Untreated Section [3]: 16 (3×) and 20; Number of Cockroaches, Dead [3]: 0 (3×) and 1; Number of Cockroaches present, Treated Section, Total [3]: 11; Number of Cockroaches present, Untreated Section, Total [3]: 68; Number of Cockroaches, Dead, Total [3]: 1
CCCNC(=O)C1CC(C)CCC1C(C)C (stereo not shown) [Compound 3, N-propyl-p-menthane-3-carboxamide] | 0% | 16.3% | 83.7% | 1.2% | 6.3% | 92.5% | 0% | 6.3% | 93.7% | 9.6% | 90.0% | 
